Data from patent US7605168B2 (Plexxikon, Inc., priority 2004, dated 2009).

Assays:
[1] = target: T1, PDE4B: catalytic domain of human PDE4B from S152-S528 (Homo sapiens, UniProt Q07343); assay: PDE4 IC50 determination by Scintillation Proximity Assay (SPA), PDE4B catalytic domain; assay type: biochemical; conditions: [3H]cAMP SPA, 30 min at 30° C.
T1 construct: The catalytic domain of human PDE4B from S152-S528; His6 (N, cleaved yes); thrombin cleavage site (N, cleaved yes); made in house; host or cells: E. coli BL21 (DE3) RIL
T1 sequence (Q07343 324-700): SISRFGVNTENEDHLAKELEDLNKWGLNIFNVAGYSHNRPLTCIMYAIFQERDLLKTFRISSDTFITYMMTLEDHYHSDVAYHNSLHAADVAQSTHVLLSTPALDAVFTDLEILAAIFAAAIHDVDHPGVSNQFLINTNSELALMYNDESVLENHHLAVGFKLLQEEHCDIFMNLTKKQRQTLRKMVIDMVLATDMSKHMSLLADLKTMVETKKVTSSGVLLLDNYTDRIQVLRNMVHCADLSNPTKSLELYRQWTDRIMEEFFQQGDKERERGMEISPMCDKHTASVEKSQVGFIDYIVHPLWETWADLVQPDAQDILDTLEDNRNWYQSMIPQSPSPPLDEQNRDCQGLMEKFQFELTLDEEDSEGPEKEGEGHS
In short: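 Human PDE4B catalytic domain (80 ng/ml) hydrolysed [3H]cAMP in 50 mM Tris pH 7.5, 8.3 mM MgCl, 1.7 mM EGTA, 0.01% BSA for 30 min at 30 °C. Reaction was stopped with yttrium silicate SPA beads in 18 mM ZnSO4, and bound [3H]AMP was counted by scintillation. IC50 came from non-linear regression.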

[2] = tested on: TNF-α release from whole blood cultures stimulated with LPS; assay: IC50 by TNF alpha production upon stimulation of whole blood cultures with LPS; assay type: cell-based; conditions: human whole blood (buffy coat) culture, 100 ng/ml LPS, 4 hours; read-out: h TNFα IC50
Procedure: Compounds were assayed to generate IC50 numbers based on the inhibition of TNF-α release from whole blood cultures, using the following assay protocol (see Table 5 for compounds tested and results). Inhibition of PDE4B results in the inhibition of TNF-α release by whole blood cultures stimulated with lipopolysaccharide (LPS). The measurement of TNF-α release was used to assess compounds as PDE4B inhibitors.
Compounds were provided in DMSO at 20 mM and 2 μl per well was added to one row of a dilution plate. Added 98 μl of RPMI 1640 media with 2.5% heat inactivated FBS to each well containing compound. The same media with 2% DMSO was prepared and 60 μl was added to each of the empty wells in the dilution plate. The compound was serially diluted 1:3 (30 μl to 60 μl of media) for a total of 8 concentrations per compound. Wells were also prepared with 50 μM roflumilast and piclamilast as 100% inhibition controls, and 2% DMSO in media was used as 0% inhibition control. A 20 μl aliquot of each sample was transferred to an assay plate in duplicate.
Human buffy coat was obtained from the Stanford Medical School Blood Center and diluted with 7 volumes of RPMI 1640 media with 1% penicillin/streptomycin and 2.5% heat inactivated FBS. A 160 μl aliquot of the diluted blood was added to each well of the assay plates, mixed and incubated for 1 hour at 37° C. in 5% CO2. LPS (Sigma catalog number L2637) that had been diluted to 1 mg/ml in PBS and stored as 20 μl aliquots at −20° C. was thawed and diluted 1000× to 1 μg/ml. A 20 μl aliquot of this was added to each sample (final concentration 100 ng/ml LPS) after the 1 hour incubation. A background sample was prepared without addition of LPS as well. The samples were mixed on a shaker for one minute at 900 RPM and incubated for 4 hours at 37° C. in 5% CO2. The plates were then put on a shaker for one minute at 900 RPM, followed by centrifuging at 100×g for 10 minutes, deceleration setting of 5. The top 75 μl of supernatant was carefully pipetted to a new plate and frozen at −20° C.
A 50 μl aliquot of incubation buffer (Biosource International Immunoassay Kit:Human TNF-α catalog number KHC3011) was added to each well of a plate coated with monoclonal antibody specific for hTNF-α (Biosource kit). The supernatant blood samples were thawed and a 50 μl aliquot along with 50 μl of diluent buffer (Biosource kit) were added to incubation buffer and the samples were incubated for 2 hours at room temperature. The samples were washed 4 times with 300 μl/well wash buffer (Biosource kit). A 100 μl aliquot of biotinylated anti-TNFalpha (Biosource kit) was added and the samples incubated for 1 hour at room temperature. The samples were washed 4 times with 300 μl/well wash buffer. A 100 μl aliquot of Streptavidin-HRP solution (BioSource kit) was added and the samples incubated for 30 minutes at room temperature. The samples were washed 4 times with 300 μl/well wash buffer. A 100 μl aliquot of Chromagen (Biosource kit) was added and the samples incubated in the dark for 30 minutes. A 100 μl aliquot of stop solution (2N H2SO4) was added to each sample and samples were read at 450 nm on a WallacVictor for 0.1 sec/well.

[3] = target: T2, PDE4D5: full-length human PDE4D5 isozyme (Homo sapiens, UniProt Q08499); assay: PDE4 IC50 determination by Scintillation Proximity Assay (SPA), full-length PDE4D5; assay type: biochemical; conditions: cell lysate, [3H]cAMP SPA
T2 construct: made in house; host or cells: baculovirus infected insect cells (pFastBacHT)
T2 sequence (Q08499 with tags, fused parts or gaps isoform Q08499-6): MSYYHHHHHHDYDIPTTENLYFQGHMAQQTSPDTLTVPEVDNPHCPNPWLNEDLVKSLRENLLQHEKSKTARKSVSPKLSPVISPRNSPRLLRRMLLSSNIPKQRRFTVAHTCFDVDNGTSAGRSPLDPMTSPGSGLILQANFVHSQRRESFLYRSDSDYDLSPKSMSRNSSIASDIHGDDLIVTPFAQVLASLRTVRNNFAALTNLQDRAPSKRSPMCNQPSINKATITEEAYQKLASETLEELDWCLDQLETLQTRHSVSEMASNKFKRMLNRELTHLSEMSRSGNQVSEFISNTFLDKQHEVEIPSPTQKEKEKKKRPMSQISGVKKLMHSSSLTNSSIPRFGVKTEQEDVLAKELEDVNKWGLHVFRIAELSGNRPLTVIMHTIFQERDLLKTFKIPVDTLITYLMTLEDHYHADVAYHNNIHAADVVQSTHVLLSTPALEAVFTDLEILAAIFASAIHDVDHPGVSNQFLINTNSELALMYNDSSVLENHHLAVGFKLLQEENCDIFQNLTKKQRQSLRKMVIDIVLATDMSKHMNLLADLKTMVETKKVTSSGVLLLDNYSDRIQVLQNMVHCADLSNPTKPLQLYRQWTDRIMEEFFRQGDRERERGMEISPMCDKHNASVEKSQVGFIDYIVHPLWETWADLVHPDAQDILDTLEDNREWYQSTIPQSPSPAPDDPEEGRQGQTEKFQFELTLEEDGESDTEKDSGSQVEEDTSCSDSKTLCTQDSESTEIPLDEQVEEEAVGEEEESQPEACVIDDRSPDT
In short: (§1)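 Unpurified enzyme from cell lysates (PDE4B2 2.5 μl, PDE4D5 0.083 μl of 50% glycerol stock/ml) hydrolysing [3H]cAMP in 50 mM Tris pH 7.5, 8.3 mM MgCl, 1.7 mM EGTA, 0.01% BSA, 30 min at 30 °C. Stopped with yttrium silicate SPA beads in 18 mM ZnSO4; bead-bound [3H]AMP counted. IC50 by non-linear regression.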

[4] = target: T3, PDE4B2: full-length human PDE4B2 isozyme (Homo sapiens, UniProt Q07343); assay: PDE4 IC50 determination by Scintillation Proximity Assay (SPA), full-length PDE4B2; assay type: biochemical; conditions: cell lysate, [3H]cAMP SPA
T3 construct: made in house; host or cells: baculovirus infected insect cells (pFastBacHT)
T3 sequence (Q07343 with tags, fused parts or gaps isoform Q07343-2): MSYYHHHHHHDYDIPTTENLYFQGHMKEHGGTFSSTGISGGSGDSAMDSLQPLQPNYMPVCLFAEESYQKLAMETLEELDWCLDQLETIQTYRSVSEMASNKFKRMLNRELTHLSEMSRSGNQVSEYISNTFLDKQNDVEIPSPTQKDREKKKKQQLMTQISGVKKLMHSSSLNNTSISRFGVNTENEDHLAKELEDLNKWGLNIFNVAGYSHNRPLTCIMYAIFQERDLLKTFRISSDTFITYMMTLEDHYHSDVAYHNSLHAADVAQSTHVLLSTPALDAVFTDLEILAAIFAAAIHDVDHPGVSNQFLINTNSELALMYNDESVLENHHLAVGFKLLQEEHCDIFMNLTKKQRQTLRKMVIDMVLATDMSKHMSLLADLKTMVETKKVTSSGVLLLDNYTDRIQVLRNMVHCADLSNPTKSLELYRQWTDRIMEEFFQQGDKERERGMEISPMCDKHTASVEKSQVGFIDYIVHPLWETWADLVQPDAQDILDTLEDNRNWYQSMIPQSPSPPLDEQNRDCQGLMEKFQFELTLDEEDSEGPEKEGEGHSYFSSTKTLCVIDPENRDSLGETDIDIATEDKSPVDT
In short: as §1

IC50 [1] [µM] | IC50 [2] [µM] | IC50 [3] [µM] | IC50 [4] [µM] | Structure (SMILES)
< 10 | ≤ 10 | < 10 | < 10 | COc1ccc(-c2ccnc3c2ccn3S(=O)(=O)Cc2ccccc2)cc1OC [Compound 127, 4-(3,4-Dimethoxy-phenyl)-1-phenylmethanesulfonyl-1H-pyrrolo[2,3-b]pyridine]
< 10 | > 10 | < 10 | < 10 | CCOc1ccccc1C(=O)n1ccc2c(-c3ccc(OC)c(OC)c3)ccnc21 [Compound 51, [4-(3,4-Dimethoxy-phenyl)-pyrrolo[2,3-b]pyridin-1-yl]-(2-ethoxy-phenyl)-methanone]
< 10 | > 10 | < 10 | < 10 | CCOc1ccc2ccccc2c1C(=O)n1ccc2cc(-c3ccc(OC)c(OC)c3)cnc21 [Compound 80, [5-(3,4-Dimethoxy-phenyl)-pyrrolo[2,3-b]pyridin-1-yl]-(2-ethoxy-naphthalen-1-yl)-methanone]
< 10 | ≤ 10 | < 10 | < 10 | COc1ccc(-c2cn(Cc3cccc(C(F)(F)F)c3)c3ncccc23)cc1OC [Compound 79, 3-(3,4-Dimethoxy-phenyl)-1-(3-trifluoromethyl-benzyl)-1H-pyrrolo[2,3-b]pyridine]
< 10 | ≤ 10 | < 10 | < 10 | COc1ccc(-c2cn(S(=O)(=O)c3cccc4ccccc34)c3ncccc23)cc1OC [Compound 16, 3-(3,4-Dimethoxy-phenyl)-1-(naphthalene-1-sulfonyl)-1H-pyrrolo[2,3-b]pyridine]
< 10 | ≤ 10 | < 10 | < 10 | COc1ccc(-c2cn(Cc3ccccc3)c3ncccc23)cc1OC [Compound 75, 1-Benzyl-3-(3,4-dimethoxy-phenyl)-1H-pyrrolo[2,3-b]pyridine]
< 10 | ≤ 10 | < 10 | < 10 | COc1ccc(-c2cn(C(=O)c3ccccc3OC)c3ncccc23)cc1OC [Compound 68, [3-(3,4-Dimethoxy-phenyl)-pyrrolo[2,3-b]pyridin-1-yl]-(2-methoxyphenyl)-methanone]
< 10 | ≤ 10 | < 10 | < 10 | COc1ccc(-c2cn(S(=O)(=O)c3cccc4cccnc34)c3ccccc23)cc1OC [Compound 21, 8-[3-(3,4-dimethoxy-phenyl)-indole-1-sulfonyl]-quinoline]
< 10 | ≤ 10 | < 10 | < 10 | COc1ccc(-c2cn(C(=O)Nc3ccc(Cl)cc3)c3ncccc23)cc1OC [Compound 26, 3-(3,4-dimethoxy-phenyl)-pyrrolo[2,3-b]pyridine-1-carboxylic acid (4-chloro-phenyl)-amide]
< 10 | ≤ 10 | < 10 | < 10 | COc1ccc(-c2cn(Cc3c(C)ccc4ccccc34)c3ncccc23)cc1OC [Compound 76, 3-(3,4-Dimethoxy-phenyl)-1-(2-methyl-naphthalen-1-ylmethyl)-1H-pyrrolo[2,3-b]pyridine]
< 10 | > 10 | > 10 | < 10 | COc1ccc(-c2cn(C(=O)Nc3cccc([N+](=O)[O-])c3)c3ncccc23)cc1OC [Compound 38, 3-(3,4-Dimethoxy-phenyl)-pyrrolo[2,3-b]pyridine-1-carboxylic acid (3-nitro-phenyl)-amide]
< 10 | ≤ 10 | < 10 | < 10 | COc1ccc(-c2cn(Cc3ccccc3-c3ccccc3)c3ncccc23)cc1OC [Compound 78, 1-Biphenyl-2-ylmethyl-3-(3,4-dimethoxy-phenyl)-1H-pyrrolo[2,3-b]pyridine]
< 10 | ≤ 10 | < 10 | < 10 | COc1ccc(-c2cn(C(=O)c3ccccc3)c3ncccc23)cc1OC [Compound 55, [3-(3,4-Dimethoxy-phenyl)-pyrrolo[2,3-b]pyridin-1-yl]phenylmethanone-amide]
< 10 | > 10 | < 10 | < 10 | COc1ccc(-c2cn(C(=O)c3c(-c4ccccc4)cnc4ccccc34)c3ncccc23)cc1OC [Compound 117, [3-(3,4-Dimethoxy-phenyl)-pyrrolo[2,3-b]pyridin-1-yl]-(3-phenyl-quinolin-4-yl)-methanone]
< 10 | ≤ 10 | < 10 | < 10 | COc1ccc(-c2cnc3[nH]ccc3c2)cc1OC [Compound 82, 5-(3,4-Dimethoxy-phenyl)-1H-pyrrolo[2,3-b]pyridine]
< 10 | > 10 | < 10 | < 10 | COc1ccc(-c2cn(S(=O)(=O)c3ccc(C)c4ccccc34)c3ncccc23)cc1OC [Compound 12, 3-(3,4-Dimethoxy-phenyl)-1-(4-methyl-naphthalene-1-sulfonyl)-1H-pyrrolo[2,3-b]pyridine]
< 10 | ≤ 10 | < 10 | < 10 | COc1ccc(-c2cn(C(C)=O)c3ncccc23)cc1OC [Compound 67, 1-[3-(3,4-Dimethoxy-phenyl)-pyrrolo[2,3-b]pyridin-1-yl]-ethanone]
